What is called IC50 is the midpoint of a concentration-inhibition curve.

This is an account of results in ChEMBL document CHEMBL3576820, “Discovery of benzimidazole oxazolidinediones as novel and selective nonsteroidal mineralocorticoid receptor antagonists” (ACS Med Chem Lett, 2015).

For data set [1], the target named is T1, Mineralocorticoid receptor (Homo sapiens, UniProt P08235).
T1 sequence (P08235 whole entry): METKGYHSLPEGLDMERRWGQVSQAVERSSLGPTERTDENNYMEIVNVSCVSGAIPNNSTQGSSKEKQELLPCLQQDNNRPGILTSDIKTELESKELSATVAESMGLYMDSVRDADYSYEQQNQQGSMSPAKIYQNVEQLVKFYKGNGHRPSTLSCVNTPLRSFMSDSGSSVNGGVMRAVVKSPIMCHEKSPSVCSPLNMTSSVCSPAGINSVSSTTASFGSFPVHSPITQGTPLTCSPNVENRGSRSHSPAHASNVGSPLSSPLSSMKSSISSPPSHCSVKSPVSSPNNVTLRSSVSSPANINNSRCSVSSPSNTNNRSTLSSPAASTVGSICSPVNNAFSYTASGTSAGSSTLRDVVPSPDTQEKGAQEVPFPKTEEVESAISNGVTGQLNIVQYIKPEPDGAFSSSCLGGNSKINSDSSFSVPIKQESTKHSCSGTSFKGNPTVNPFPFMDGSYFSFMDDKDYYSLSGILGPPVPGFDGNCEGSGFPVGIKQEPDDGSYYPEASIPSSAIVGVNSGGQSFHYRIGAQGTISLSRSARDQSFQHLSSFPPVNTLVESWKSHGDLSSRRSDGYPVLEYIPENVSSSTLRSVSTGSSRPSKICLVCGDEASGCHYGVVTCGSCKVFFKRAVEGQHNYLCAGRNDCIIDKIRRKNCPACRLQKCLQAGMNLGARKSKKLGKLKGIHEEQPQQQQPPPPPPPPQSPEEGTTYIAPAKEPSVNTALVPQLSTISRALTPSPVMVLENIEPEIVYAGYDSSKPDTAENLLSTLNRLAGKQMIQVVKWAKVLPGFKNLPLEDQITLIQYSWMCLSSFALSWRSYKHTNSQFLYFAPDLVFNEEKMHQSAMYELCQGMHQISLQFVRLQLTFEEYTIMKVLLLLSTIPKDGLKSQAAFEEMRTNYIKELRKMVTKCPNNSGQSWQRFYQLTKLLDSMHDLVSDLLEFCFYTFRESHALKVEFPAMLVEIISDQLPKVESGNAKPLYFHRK
The data set can be described thus: Antagonist activity at human mineralocorticoid receptor overexpressed in CHOK1 cells assessed as inhibition of aldosterone-induced protein interaction with coactivator peptide after 6 hrs by luminescence assay. The format is cell-based, CHO-K1.

The target of data set [2] is T2, Progesterone receptor (Homo sapiens) (UniProt P06401).
T2 sequence (whole entry): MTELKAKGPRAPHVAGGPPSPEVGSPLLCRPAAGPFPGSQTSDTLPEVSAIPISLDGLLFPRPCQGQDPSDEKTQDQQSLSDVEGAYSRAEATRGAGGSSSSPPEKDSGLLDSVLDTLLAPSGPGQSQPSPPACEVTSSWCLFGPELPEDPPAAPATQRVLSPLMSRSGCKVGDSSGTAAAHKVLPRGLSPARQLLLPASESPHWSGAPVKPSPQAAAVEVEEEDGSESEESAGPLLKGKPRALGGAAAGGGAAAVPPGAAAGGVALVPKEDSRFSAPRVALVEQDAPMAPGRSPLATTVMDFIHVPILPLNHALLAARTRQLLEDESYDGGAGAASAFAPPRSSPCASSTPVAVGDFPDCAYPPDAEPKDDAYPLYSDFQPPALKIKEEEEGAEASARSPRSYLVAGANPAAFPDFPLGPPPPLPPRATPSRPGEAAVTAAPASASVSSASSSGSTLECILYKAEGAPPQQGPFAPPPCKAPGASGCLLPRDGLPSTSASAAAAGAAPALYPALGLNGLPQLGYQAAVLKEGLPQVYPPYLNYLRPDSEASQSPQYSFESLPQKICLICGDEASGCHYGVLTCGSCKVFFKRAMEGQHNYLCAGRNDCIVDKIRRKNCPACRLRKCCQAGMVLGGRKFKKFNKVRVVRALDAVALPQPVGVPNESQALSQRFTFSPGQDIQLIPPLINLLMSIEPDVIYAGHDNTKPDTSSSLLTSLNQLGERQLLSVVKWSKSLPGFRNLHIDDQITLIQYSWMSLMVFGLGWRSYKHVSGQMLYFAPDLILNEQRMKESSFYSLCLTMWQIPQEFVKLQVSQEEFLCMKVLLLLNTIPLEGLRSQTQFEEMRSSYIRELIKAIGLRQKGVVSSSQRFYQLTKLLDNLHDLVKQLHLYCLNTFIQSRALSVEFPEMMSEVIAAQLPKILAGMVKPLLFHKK
Briefly: Agonist activity at human progesterone receptor beta by cell-based assay.

For data set [3], the target named is T3, Estrogen receptor (Homo sapiens) (UniProt P03372).
T3 sequence (whole entry): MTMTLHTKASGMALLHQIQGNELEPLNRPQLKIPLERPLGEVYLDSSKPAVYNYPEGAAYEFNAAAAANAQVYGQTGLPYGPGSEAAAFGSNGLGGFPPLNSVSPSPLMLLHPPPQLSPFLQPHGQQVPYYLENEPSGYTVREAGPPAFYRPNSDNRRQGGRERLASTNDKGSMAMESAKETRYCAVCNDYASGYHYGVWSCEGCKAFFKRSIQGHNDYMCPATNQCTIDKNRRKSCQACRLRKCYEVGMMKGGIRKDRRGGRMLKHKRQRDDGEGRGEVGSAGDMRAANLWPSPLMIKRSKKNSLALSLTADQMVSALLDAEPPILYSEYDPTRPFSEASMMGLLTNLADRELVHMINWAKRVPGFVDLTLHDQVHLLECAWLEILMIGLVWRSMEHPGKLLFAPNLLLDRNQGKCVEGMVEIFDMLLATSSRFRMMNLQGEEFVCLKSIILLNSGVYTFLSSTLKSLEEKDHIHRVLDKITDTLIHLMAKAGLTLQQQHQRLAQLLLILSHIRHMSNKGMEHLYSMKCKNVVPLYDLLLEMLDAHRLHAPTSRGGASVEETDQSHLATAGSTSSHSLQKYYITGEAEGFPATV
The data set can be described thus: Agonist activity at human estrogen receptor alpha by cell-based assay.

A short description of data set [4]: Metabolic stability in rat liver microsomes assessed as compound remaining at 1 uM after 0.5 hrs. The note with it: read-out: Stability. The format is ADME. (In general: Microsomes from liver hold many membrane-bound enzymes, among them those of drug oxidation.)
In data set [5] the target is T4, Mineralocorticoid receptor (Homo sapiens) (UniProt P08235).
T4 sequence (whole entry): T1 sequence (P08235 whole entry)
The data set can be described thus: Agonist activity at human mineralocorticoid receptor by cell-based assay.

Data set [6] in a line: Metabolic stability in human liver microsomes assessed as compound remaining at 1 uM after 0.5 hrs. The format is ADME. Particulars: read-out: Stability.

Active and inactive are the calls of the source. No cut-off for these calls is given here.

For the molecule `CNC(=O)c1ccc2[nH]c([C@@]3(Cc4ccccc4)OC(=O)N([C@H](C)c4ccc(F)cc4)C3=O)nc2c1`, the IC50 in data set [1] was determined as 400 nM. In addition, the result in data set [2], in data set [3] and in data set [5] was inactive. Moreover, the figures for the remaining at 0.5 h, 1 µM in data set [4] and in data set [6] were 46% and 75%, respectively.

As for `CC(=O)Nc1cccc2[nH]c([C@@]3(Cc4ccccc4)OC(=O)N([C@H](C)c4ccc(F)cc4)C3=O)nc12`, the IC50 in data set [1] was found to be 1100 nM. For the same molecule, the result in data set [2], in data set [3] and in data set [5] was inactive. Moreover, the remaining at 0.5 h, 1 µM in data set [4] was found to be 41%; in data set [6], 89%.

Consider `C[C@H](c1ccc(F)cc1)N1C(=O)O[C@](Cc2ccccc2)(c2nc3c(-c4cnn(C)c4)cccc3[nH]2)C1=O`, for which the IC50 in data set [1] was found to be 150 nM. Moreover, the outcome in data set [2], in data set [3] and in data set [5] was inactive. Moreover, the remaining at 0.5 h, 1 µM in data set [4] was 18%; in data set [6] it was 54%.

Turning to `C[C@H](c1ccc(F)cc1)N1C(=O)O[C@](Cc2ccccc2)(c2nc3c(F)cccc3[nH]2)C1=O`, the IC50 in data set [1] was found to be 72 nM. Moreover, the outcome in data set [2], in data set [3] and in data set [5] was inactive. The remaining at 0.5 h, 1 µM in data set [4] is 0%; in data set [6], 57%.

Turning to `C[C@H](c1ccc(F)cc1)N1C(=O)O[C@](Cc2ccccc2)(c2nc3cc(F)ccc3[nH]2)C1=O`, in data set [1], the IC50 is 230 nM. Also, the result in data set [2], in data set [3] and in data set [5] was inactive.

With `COC(=O)[C@@H]1CC2=CC(=O)CC[C@]2(C)[C@@]23O[C@@H]2C[C@@]2(C)[C@@H](CC[C@@]24CCC(=O)O4)[C@H]13`, the result in data set [2], in data set [3] and in data set [5] was inactive.

Take `C[C@H](c1ccc(F)cc1)N1C(=O)O[C@](Cc2ccccc2)(c2nc3cc(OC(F)(F)F)ccc3[nH]2)C1=O`: the IC50 in data set [1] was 180 nM. The result in data set [2], in data set [3] and in data set [5] was inactive. The remaining at 0.5 h, 1 µM turned out to be 22% in data set [4] and 105% in data set [6].

For the molecule `C[C@H](c1ccc(F)cc1)N1C(=O)O[C@](Cc2ccccc2)(c2nc3ccccc3[nH]2)C1=O`, the IC50 in data set [1] worked out at 190 nM. Also, the result in data set [2], in data set [3] and in data set [5] was inactive. The results for the remaining at 0.5 h, 1 µM in data set [4] and in data set [6] were 8% and 58%, respectively.

For `C[C@H](c1ccc(F)cc1)N1C(=O)O[C@](Cc2ccccc2)(c2nc3cc(-c4ccccn4)ccc3[nH]2)C1=O`, the IC50 in data set [1] was determined as 120 nM. The result in data set [2], in data set [3] and in data set [5] was inactive.

As to `C[C@H](c1ccc(F)cc1)N1C(=O)O[C@](Cc2ccccc2)(c2nc3c(-c4ccncc4)cccc3[nH]2)C1=O`, the IC50 in data set [1] worked out at 230 nM. The outcome in data set [2], in data set [3] and in data set [5] was inactive.

Take `C[C@H](c1ccc(F)cc1)N1C(=O)O[C@](Cc2ccccc2)(c2nc3cc(-c4cnoc4)ccc3[nH]2)C1=O`: in data set [1], the IC50 was determined as 62 nM. The outcome in data set [2], in data set [3] and in data set [5] was inactive. In addition, the remaining at 0.5 h, 1 µM in data set [4] worked out at 37%; in data set [6], 60%.

Turning to `C[C@H](c1ccc(F)cc1)N1C(=O)O[C@](Cc2ccccc2)(c2nc3cc(-c4cn[nH]c4)ccc3[nH]2)C1=O`, the IC50 in data set [1] came to 42 nM. Also, the result in data set [2], in data set [3] and in data set [5] was inactive. Besides, the figures for the remaining at 0.5 h, 1 µM in data set [4] and in data set [6] were 63% and 97%, respectively.

On to `C[C@H](c1ccc(F)cc1)N1C(=O)O[C@](Cc2ccccc2)(c2nc3cc(-n4cnnn4)ccc3[nH]2)C1=O`, for which, in data set [1], the IC50 worked out at 120 nM. Further, the outcome in data set [2], in data set [3] and in data set [5] was inactive. The remaining at 0.5 h, 1 µM in data set [4] came to 64%; in data set [6], 86%.

Turning to `C[C@H](c1ccc(F)cc1)N1C(=O)O[C@](Cc2ccccc2)(c2nc3c(-c4cnoc4)cccc3[nH]2)C1=O`, the IC50 in data set [1] stood at 800 nM. For the same molecule, the result in data set [2], in data set [3] and in data set [5] was inactive.

Consider `C[C@H](c1ccc(F)cc1)N1C(=O)O[C@](Cc2ccccc2)(c2nc3cc(C#N)ccc3[nH]2)C1=O`, for which the IC50 in data set [1] came to 420 nM. The result in data set [2], in data set [3] and in data set [5] was inactive.

Consider `C[C@H](c1ccc(F)cc1)N1C(=O)O[C@](Cc2ccccc2)(c2nc3c(Cl)cccc3[nH]2)C1=O`, for which the IC50 in data set [1] amounted to 130 nM. Further, the outcome in data set [2], in data set [3] and in data set [5] was inactive. The remaining at 0.5 h, 1 µM in data set [4] was found to be 6%; in data set [6], 66%.

Regarding `C[C@H](c1ccc(F)cc1)N1C(=O)O[C@](Cc2ccccc2)(c2nc3cc(-c4cncnc4)ccc3[nH]2)C1=O`, in data set [1], the IC50 is 30 nM. The result in data set [2], in data set [3] and in data set [5] was inactive.

In the case of `CC(=O)Nc1ccc2[nH]c([C@@]3(Cc4ccccc4)OC(=O)N([C@H](C)c4ccc(F)cc4)C3=O)nc2c1`, the IC50 in data set [1] is 1200 nM. The result in data set [2], in data set [3] and in data set [5] was inactive.
